These are literature values, as cited in US10183097B2, “Engineered cardiac derived compositions and methods of use” (THE JOHNS HOPKINS UNIVERSITY, priority 2013, dated 2019).

For this data set, the system named is NRVM. To be noted: inventors' previous NRVM study with myofibroblasts; agent added separately.
As to `Cc1ccc2c(c1)C(=O)C1(O)CCN(c3ccccc3)C1=N2` (stereo not drawn) [blebbistatin], the “electrophysiological suppression of conduction” value (from here on “electrophysiological suppression”) is listed as “relieved the electrophysiological suppression of conduction” and the severity of arrhythmia result is reported as “reduced the severity of arrhythmia”.
For the compound `[Gd]` [gadolinium], the “electrophysiological suppression” value was “relieved the electrophysiological suppression of conduction” and the severity of arrhythmia result is reported as “reduced the severity of arrhythmia”.
With `[H]/N=C(/N)N[C@H]1[C@H](O)[C@@H](O)[C@H](O[C@@H]2O[C@@H](C)[C@](O)(C=O)[C@H]2O[C@@H]2O[C@@H](CO)[C@H](O)[C@@H](O)[C@@H]2NC)[C@@H](N/C(N)=N\[H])[C@@H]1O` [streptomycin], the “electrophysiological suppression” value was “relieved the electrophysiological suppression of conduction” and the severity of arrhythmia entry is “reduced the severity of arrhythmia”.
